Data as given in ChEMBL document CHEMBL1152405, “Bis-anthracenyl isoxazolyl amides have enhanced anticancer activity” (Bioorg Med Chem Lett, 2009).

How the values were obtained:
TK-10 = experiment: Growth inhibition of human TK10 cells after 24 hrs by MTT assay; type: functional; details: TK-10, 24 h
M14 [1] = experiment: Growth inhibition of human M14 cells at 10 uM after 24 hrs by MTT assay relative to control; type: functional; set-up: scale not given: the % may be the effect or the level left
A549 = experiment: Growth inhibition of human A549 cells after 24 hrs by MTT assay; type: functional; details: A549, 24 h
SNB-19 [2] = experiment: Growth inhibition of human SNB19 cells after 24 hrs by MTT assay; type: functional; details: SNB-19, 24 h
A498 = experiment: Growth inhibition of human A498 cells after 24 hrs by MTT assay; type: functional; details: A498, 24 h
SF-268 = experiment: Growth inhibition of human SF268 cells at 10 uM after 24 hrs by MTT assay relative to control; type: functional; set-up: scale not given: the % may be the effect or the level left
LOX IMVI = experiment: Growth inhibition of human LOXIMVI cells after 24 hrs by MTT assay; type: functional
HCC 2998 = experiment: Growth inhibition of human HCC2998 cells at 10 uM after 24 hrs by MTT assay relative to control; type: functional; set-up: scale not given: the % may be the effect or the level left
Malme-3M = experiment: Growth inhibition of human MALME-3M cells after 24 hrs by MTT assay; type: functional
T47D = experiment: Growth inhibition of human T47D cells after 24 hrs by MTT assay; type: functional
[3] = Growth inhibition of human […] cells at 10 uM after 24 hrs by MTT assay relative to control; type: functional; set-up: scale not given: the % may be the effect or the level left
NCI-H322M [4] = experiment: Growth inhibition of human NCI-H322M cells after 24 hrs by MTT assay; type: functional
SK-MEL-28 = experiment: Growth inhibition of human SK-MEL-28 cells at 10 uM after 24 hrs by MTT assay relative to control; type: functional; set-up: scale not given: the % may be the effect or the level left
K562 = experiment: Growth inhibition of human K562 cells at 10 uM after 24 hrs by MTT assay relative to control; type: functional; set-up: scale not given: the % may be the effect or the level left
BT-549 = experiment: Growth inhibition of human BT549 cells at 10 uM after 24 hrs by MTT assay relative to control; type: functional; set-up: scale not given: the % may be the effect or the level left
SF-539 = experiment: Growth inhibition of human SF539 cells at 10 uM after 24 hrs by MTT assay relative to control; type: functional; set-up: scale not given: the % may be the effect or the level left
SF-295 = experiment: Growth inhibition of human SF295 cells after 24 hrs by MTT assay; type: functional; details: SF-295, 24 h
MDA-MB-435 [5] = experiment: Growth inhibition of human MDA-MB-435 cells at 10 uM after 24 hrs by MTT assay relative to control; type: functional; set-up: scale not given: the % may be the effect or the level left
HT-29 = experiment: Growth inhibition of human HT-29 cells at 10 uM after 24 hrs by MTT assay relative to control; type: functional; set-up: scale not given: the % may be the effect or the level left
EKVX = experiment: Growth inhibition of human EKVX cells at 10 uM after 24 hrs by MTT assay relative to control; type: functional; set-up: scale not given: the % may be the effect or the level left
SNB-19 [6] = experiment: Antitumor activity against human SNB19 cells after 24 hrs; type: functional, cell-based; details: SNB-19, 24 h
KM12 = experiment: Growth inhibition of human KM12 cells at 10 uM after 24 hrs by MTT assay relative to control; type: functional; set-up: scale not given: the % may be the effect or the level left
NCI-H322M [7] = experiment: Growth inhibition of human NCI-H322M cells at 10 uM after 24 hrs by MTT assay relative to control; type: functional; set-up: scale not given: the % may be the effect or the level left
PC-3 = experiment: Growth inhibition of human PC3 cells at 10 uM after 24 hrs by MTT assay relative to control; type: functional; set-up: scale not given: the % may be the effect or the level left
NCI-H23 [8] = experiment: Growth inhibition of human NCI-H23 cells at 10 uM after 24 hrs by MTT assay relative to control; type: functional; set-up: scale not given: the % may be the effect or the level left
786-0 = experiment: Growth inhibition of human 786-0 cells at 10 uM after 24 hrs by MTT assay relative to control; type: functional; set-up: scale not given: the % may be the effect or the level left
NCI-H522 = experiment: Growth inhibition of human NCI-H522 cells after 24 hrs by MTT assay; type: functional; details: NCI-H522, 24 h
MDA-MB-435 [9] = experiment: Growth inhibition of human MDA-MB-435 cells after 24 hrs by MTT assay; type: functional; details: MDA-MB-435, 24 h
[10] = Growth inhibition of human Hs 578T cells at 10 uM after 24 hrs by MTT assay relative to control; type: functional; set-up: scale not given: the % may be the effect or the level left
NCI-H460 [11] = experiment: Growth inhibition of human NCI-H460 cells at 10 uM after 24 hrs by MTT assay relative to control; type: functional; set-up: scale not given: the % may be the effect or the level left
UACC-62 = experiment: Growth inhibition of human UACC62 cells at 10 uM after 24 hrs by MTT assay relative to control; type: functional; set-up: scale not given: the % may be the effect or the level left
NCI-H460 [12] = experiment: Growth inhibition of human NCI-H460 cells after 24 hrs by MTT assay; type: functional; details: NCI-H460, 24 h
MOLT-4 = experiment: Growth inhibition of human MOLT4 cells after 24 hrs by MTT assay; type: functional; details: MOLT-4, 24 h
HOP-92 = experiment: Growth inhibition of human HOP92 cells after 24 hrs by MTT assay; type: functional; details: HOP-92, 24 h
NCI-H23 [13] = experiment: Growth inhibition of human NCI-H23 cells after 24 hrs by MTT assay; type: functional; details: NCI-H23, 24 h
M14 [14] = experiment: Growth inhibition of human M14 cells after 24 hrs by MTT assay; type: functional; details: M14, 24 h
[15] = read-out: LC50 (the source's name)
[16] = read-out: pLC50 (the source's name) (converted)

Compound: Cc1onc(-c2c3ccccc3c(Cl)c3ccccc23)c1C(=O)Nc1cc(C(=O)NCCCN(C)CCCNC(=O)c2cc(NC(=O)c3c(-c4c5ccccc5c(Cl)c5ccccc45)noc3C)cn2C)n(C)c1
- TGI (TK-10): 4.59 µM
- GI50 (TK-10; read-out: GI50): 2.15 µM
- CC50 (TK-10; [15]): 9.77 µM
- GI50 (TK-10; read-out: pGI50 (converted)): 2.14 µM
- CC50 (TK-10; [16]): 9.77 µM
- Activity (M14 [1]): -92.68%
- TGI (A549): 2.85 µM
- GI50 (A549; read-out: GI50): 1.28 µM
- GI50 (A549; read-out: pGI50 (converted)): 1.29 µM
- TGI (SNB-19 [2]): 3.5 µM
- GI50 (SNB-19 [2]; read-out: GI50): 1.56 µM
- CC50 (SNB-19 [2]; [15]): 7.86 µM
- GI50 (SNB-19 [2]; read-out: pGI50 (converted)): 1.55 µM
- CC50 (SNB-19 [2]; [16]): 7.94 µM
- TGI (A498): 17.7 µM
- GI50 (A498; read-out: GI50): 2.63 µM
- CC50 (A498; [15]): 44.4 µM
- GI50 (A498; read-out: pGI50 (converted)): 2.63 µM
- CC50 (A498; [16]): 44.7 µM
- Activity (SF-268): -100%
- TGI (LOX IMVI): 2.96 µM
- GI50 (LOX IMVI; read-out: GI50): 1.38 µM
- GI50 (LOX IMVI; read-out: pGI50 (converted)): 1.38 µM
- Activity (HCC 2998): -91.29%
- TGI (Malme-3M): 4.27 µM
- GI50 (Malme-3M; read-out: GI50): 1.93 µM
- GI50 (Malme-3M; read-out: pGI50 (converted)): 1.95 µM
- TGI (T47D): 5.08 µM
- GI50 (T47D; read-out: GI50): 1.69 µM
- CC50 (T47D; [15]): 24.5 µM
- GI50 (T47D; read-out: pGI50 (converted)): 1.7 µM
- CC50 (T47D; [16]): 24.5 µM
- Activity [3]: -100%
- TGI (NCI-H322M [4]): 4.87 µM
- GI50 (NCI-H322M [4]; read-out: GI50): 2.18 µM
- CC50 (NCI-H322M [4]; [15]): 14.6 µM
- GI50 (NCI-H322M [4]; read-out: pGI50 (converted)): 2.19 µM
- CC50 (NCI-H322M [4]; [16]): 14.5 µM
- Activity (SK-MEL-28): -100%
- Activity (K562): -100%
- Activity (BT-549): -49.26%
- Activity (SF-539): -100%
- TGI (SF-295): 3.33 µM
- GI50 (SF-295; read-out: GI50): 1.67 µM
- GI50 (SF-295; read-out: pGI50 (converted)): 1.66 µM
- Activity (MDA-MB-435 [5]): -100%
- Activity (HT-29): -91.6%
- Activity (EKVX): -58.5%
- IC50 (SNB-19 [6]): 4.75 µM
- Activity (KM12): -100%
- Activity (NCI-H322M [7]): -97.3%
- Activity (PC-3): -100%
- Activity (NCI-H23 [8]): -73.08%
- Activity (786-0): -81.64%
- TGI (NCI-H522): 3.51 µM
- GI50 (NCI-H522; read-out: GI50): 1.59 µM
- GI50 (NCI-H522; read-out: pGI50 (converted)): 1.58 µM
- TGI (MDA-MB-435 [9]): 3.4 µM
- GI50 (MDA-MB-435 [9]; read-out: GI50): 1.9 µM
- GI50 (MDA-MB-435 [9]; read-out: pGI50 (converted)): 1.91 µM
- Activity [10]: -71.85%
- Activity (NCI-H460 [11]): -100%
- Activity (UACC-62): -100%
- TGI (NCI-H460 [12]): 2.23 µM
- GI50 (NCI-H460 [12]; read-out: GI50): 1.05 µM
- CC50 (NCI-H460 [12]; [15]): 4.72 µM
- GI50 (NCI-H460 [12]; read-out: pGI50 (converted)): 1.05 µM
- CC50 (NCI-H460 [12]; [16]): 4.68 µM
- TGI (MOLT-4): 2.43 µM
- GI50 (MOLT-4; read-out: GI50): 0.615 µM
- CC50 (MOLT-4; [15]): 7.96 µM
- GI50 (MOLT-4; read-out: pGI50 (converted)): 0.617 µM
- CC50 (MOLT-4; [16]): 7.94 µM
- TGI (HOP-92): 2.48 µM
- GI50 (HOP-92; read-out: GI50): 1.22 µM
- CC50 (HOP-92; [15]): 5.03 µM
- GI50 (HOP-92; read-out: pGI50 (converted)): 1.23 µM
- CC50 (HOP-92; [16]): 5.01 µM
- TGI (NCI-H23 [13]): 3.01 µM
- GI50 (NCI-H23 [13]; read-out: GI50): 1.54 µM
- CC50 (NCI-H23 [13]; [15]): 5.85 µM
- GI50 (NCI-H23 [13]; read-out: pGI50 (converted)): 1.55 µM
- CC50 (NCI-H23 [13]; [16]): 5.89 µM
- TGI (M14 [14]): 2.8 µM
- GI50 (M14 [14]; read-out: GI50): 1.48 µM
- CC50 (M14 [14]; [15]): 5.29 µM
- GI50 (M14 [14]; read-out: pGI50 (converted)): 1.48 µM
- CC50 (M14 [14]; [16]): 5.25 µM
